Test system: panel of 290 distinct kinases (321 in the larger panel), excluding mutant variants
Conditions: no asterisk: panel of 290 distinct kinases

`COCCOc1cc2ncnc(Sc3cccc(NC(=O)Nc4cc(C(C)(C)C)nn4-c4ccc(C)cc4C)c3)c2cc1OC` [Ex 283, 1-(3-tert-butyl-1-(2,4-dimethylphenyl)-1H-pyrazol-5-yl)-3-(3-(6-methoxy-7-(2-methoxyethoxy)quinazolin-4-ylthio)phenyl)urea] was tested, and the S35 was “C (0.20 < C ≦ 0.40)”.
In the case of `COc1cc2ncnc(Sc3cccc(NC(=O)Nc4cc(C(C)(C)C)nn4-c4ccc(C)cc4C)c3)c2cc1OC` [Ex 284, 1-(3-tert-butyl-1-(2,4-dimethylphenyl)-1H-pyrazol-5-yl)-3-(3-(6,7-dimethoxyquinazolin-4-ylthio)phenyl)urea], the S35 was “C (0.20 < C ≦ 0.40)”.
In the case of `COc1cc2ncnc(Oc3cccc(NC(=O)Nc4cc(C(C)(C)C)nn4-c4cccc(C)c4)c3)c2cc1OC` [Ex 285, 1-(3-tert-butyl-1-m-tolyl-1H-pyrazol-5-yl)-3-(3-(6,7-dimethoxyquinazolin-4-yloxy)phenyl)urea], the S35 was “D (D > 0.40)”.
`COc1cc2ncnc(Sc3cccc(NC(=O)Nc4cc(C(C)(C)C)nn4-c4cccc(C)c4)c3)c2cc1OC` [Ex 286, 1-(3-tert-butyl-1-m-tolyl-1H-pyrazol-5-yl)-3-(3-(6,7-dimethoxyquinazolin-4-ylthio)phenyl)urea] was tested, and the S35 was “D (D > 0.40)”.
In the case of `COCCOc1cc2ncnc(Sc3cccc(NC(=O)Nc4cc(C(C)(C)C)nn4-c4cccc(C)c4)c3)c2cc1OC` [Ex 287, 1-(3-tert-butyl-1-m-tolyl-1H-pyrazol-5-yl)-3-(3-(6-methoxy-7-(2-methoxyethoxy)quinazolin-4-ylthio)phenyl)urea], the S35 was “D (D > 0.40)”.
`COc1cc2ncnc(Oc3cccc(NC(=O)Nc4cc(C(C)(C)C)nn4-c4ccc(C)cc4)c3C)c2cc1OC` [Ex 288, 1-(3-tert-butyl-1-p-tolyl-1H-pyrazol-5-yl)-3-(3-(6,7-dimethoxyquinazolin-4-yloxy)-2-methylphenyl)urea] was tested, and the S35 was “C (0.20 < C ≦ 0.40)”.
`COc1cc2ncnc(Oc3cccc(NC(=O)Nc4cc(C(C)(C)C)nn4-c4ccccc4)c3C)c2cc1OC` [Ex 289, 1-(3-tert-butyl-1-phenyl-1H-pyrazol-5-yl)-3-(3-(6,7-dimethoxyquinazolin-4-yloxy)-2-methylphenyl)urea] was tested, and the S35 was “C (0.20 < C ≦ 0.40)”.
For `COc1cc2ncnc(Oc3cccc(NC(=O)Nc4cc(C(C)(C)C)on4)c3C)c2cc1OC` [Ex 290, 1-(5-tert-butylisoxazol-3-yl)-3-(3-(6,7-dimethoxyquinazolin-4-yloxy)-2-methylphenyl)urea], the S35 was “C (0.20 < C ≦ 0.40)”.
With `COc1cc2ncnc(Oc3cccc(NC(=O)Nc4cc(C(F)(F)F)nn4-c4ccccc4)c3C)c2cc1OC` [Ex 291, 1-(3-(6,7-Dimethoxyquinazolin-4-yloxy)-2-methylphenyl)-3-(1-phenyl-3-(trifluoromethyl)-1H-pyrazol-5-yl)urea] the S35 was “B (0.10 < B ≦ 0.20)”.
For `COc1cc2ncnc(Oc3cc(NC(=O)Nc4cc(C(C)(C)F)no4)ccc3F)c2cc1OC` [Ex 293, 1-(3-(6,7-dimethoxyquinazolin-4-yloxy)-4-fluorophenyl)-3-(3-(2-fluoropropan-2-yl)isoxazol-5-yl)urea], the S35 was “C (0.20 < C ≦ 0.40)”.
For `COc1cc2ncnc(Oc3cc(NC(=O)Nc4cc(C(C)(CF)CF)on4)ccc3F)c2cc1OC` [Ex 294, 1-(5-(1,3-difluoro-2-methylpropan-2-yl)isoxazol-3-yl)-3-(3-(6,7-dimethoxyquinazolin-4-yloxy)-4-fluorophenyl)urea], the S35 was “D (D > 0.40)”.
For `COc1cc2ncnc(Oc3cccc(NC(=O)Nc4cc(C(C)(C)C)nn4-c4ccccc4)c3F)c2cc1OC` [Ex 295, 1-(3-tert-butyl-1-phenyl-1H-pyrazol-5-yl)-3-(3-(6,7-dimethoxyquinazolin-4-yloxy)-2-fluorophenyl)urea], the S35 was “C (0.20 < C ≦ 0.40)”.
With `COc1cc2ncnc(Oc3cccc(NC(=O)Nc4cc(C(C)(C)F)no4)c3F)c2cc1OC` [Ex 296, 1-(3-(6,7-dimethoxyquinazolin-4-yloxy)-2-fluorophenyl)-3-(3-(2-fluoropropan-2-yl)isoxazol-5-yl)urea] the S35 was “B (0.10 < B ≦ 0.20)”.
`COc1cc2ncnc(Oc3cccc(NC(=O)Nc4cc(C(C)(CF)CF)on4)c3F)c2cc1OC` [Ex 297, 1-(5-(1,3-difluoro-2-methylpropan-2-yl)isoxazol-3-yl)-3-(3-(6,7-dimethoxyquinazolin-4-yloxy)-2-fluorophenyl)urea] was tested, and the S35 was “C (0.20 < C ≦ 0.40)”.
For `COc1cc2ncnc(Oc3ccc(Cl)c(NC(=O)Nc4cc(C(C)(C)C)nn4-c4ccc(C)cc4)c3)c2cc1OC` [Ex 298, 1-(3-tert-butyl-1-p-tolyl-1H-pyrazol-5-yl)-3-(2-chloro-5-(6,7-dimethoxyquinazolin-4-yloxy)phenyl)urea], the S35 was “D (D > 0.40)”.
For `COc1cc2ncnc(Oc3ccc(Cl)c(NC(=O)Nc4cc(C(C)(C)C)on4)c3)c2cc1OC` [Ex 299, 1-(5-tert-butylisoxazol-3-yl)-3-(2-chloro-5-(6,7-dimethoxyquinazolin-4-yloxy)phenyl)urea], the S35 was “C (0.20 < C ≦ 0.40)”.
For `COc1cc2ncnc(Oc3ccc(Cl)c(NC(=O)Nc4cc(C(F)(F)F)nn4-c4ccccc4)c3)c2cc1OC` [Ex 300, 1-(2-chloro-5-(6,7-dimethoxyquinazolin-4-yloxy)phenyl)-3-(1-phenyl-3-(trifluoromethyl)-1H-pyrazol-5-yl)urea], the S35 was “C (0.20 < C ≦ 0.40)”.
In the case of `COc1cc2ncnc(Oc3ccc(Cl)c(NC(=O)Nc4cc(C(C)(C)C)nn4-c4ccccc4)c3)c2cc1OC` [Ex 301, 1-(3-tert-butyl-1-phenyl-1H-pyrazol-5-yl)-3-(2-chloro-5-(6,7-dimethoxyquinazolin-4-yloxy)phenyl)urea], the S35 was “D (D > 0.40)”.
For `COc1cc2ncnc(Oc3cccc(NC(=O)Nc4cc(C(C)(C)CN5CCOCC5)on4)c3)c2cc1OC` [Ex 302, 1-(3-(6,7-dimethoxyquinazolin-4-yloxy)phenyl)-3-(5-(2-methyl-1-morpholinopropan-2-yl)isoxazol-3-yl)urea], the S35 was “B (0.10 < B ≦ 0.20)”.
With `COc1cc2ncnc(Oc3cccc(NC(=O)Nc4cc(C(C)(C)C)nn4-c4cnccc4C)c3)c2cc1OC` [Ex 303, 1-(3-tert-butyl-1-(4-methylpyridin-3-yl)-1H-pyrazol-5-yl)-3-(3-(6,7-dimethoxyquinazolin-4-yloxy)phenyl)urea] the S35 was “D (D > 0.40)”.
For `COc1cc2ncnc(Oc3cccc(NC(=O)Nc4cc(C(F)(F)C(F)(F)F)nn4-c4ccccc4)c3)c2cc1OC` [Ex 304, 1-(3-(6,7-dimethoxyquinazolin-4-yloxy)phenyl)-3-(3-(perfluoroethyl)-1-phenyl-1H-pyrazol-5-yl)urea], the S35 was “C (0.20 < C ≦ 0.40)”.
For `COc1cc2ncnc(Sc3cccc(NC(=O)Nc4cc(C5CCC5)nn4-c4ccccc4)c3)c2cc1OC` [Ex 356, 1-(3-cyclobutyl-1-phenyl-1H-pyrazol-5-yl)-3-(3-(6,7-dimethoxyquinazolin-4-ylthio)phenyl)urea], the S35 was “C (0.20 < C ≦ 0.40)”.
In the case of `COc1cc2ncnc(Oc3cccc(NC(=O)Nc4cc(C(C)(C)C)nn4Cc4ccccc4)c3)c2cc1OC` [Ex 357, 1-(1-benzyl-3-tert-butyl-1H-pyrazol-5-yl)-3-(3-(6,7-dimethoxyquinazolin-4-yloxy)phenyl)urea], the S35 was “C (0.20 < C ≦ 0.40)”.
With `COc1cc2ncnc(Sc3cccc(NC(=O)Nc4cc(C(C)(C)C)nn4Cc4ccccc4)c3)c2cc1OC` [Ex 358, 1-(1-benzyl-3-tert-butyl-1H-pyrazol-5-yl)-3-(3-(6,7-dimethoxyquinazolin-4-ylthio)phenyl)urea] the S35 was “C (0.20 < C ≦ 0.40)”.
For `COc1cc2ncnc(Oc3cccc(NC(=O)Nc4cc(C(C)(C)C)nn4-c4cccc(F)c4)c3)c2cc1OC` [Ex 359, 1-(3-tert-butyl-1-(3-fluorophenyl)-1H-pyrazol-5-yl)-3-(3-(6,7-dimethoxyquinazolin-4-yloxy)phenyl)urea], the S35 was “D (D > 0.40)”.
With `COc1cc2ncnc(Sc3cccc(NC(=O)Nc4cc(C(C)(C)C)nn4-c4cccc(F)c4)c3)c2cc1OC` [Ex 360, 1-(3-tert-butyl-1-(3-fluorophenyl)-1H-pyrazol-5-yl)-3-(3-(6,7-dimethoxyquinazolin-4-ylthio)phenyl)urea] the S35 was “D (D > 0.40)”.
With `COc1ccc(-n2nc(C(C)(C)C)cc2NC(=O)Nc2cccc(Oc3ncnc4cc(OC)c(OC)cc34)c2)cc1` [Ex 361, 1-(3-tert-butyl-1-(4-methoxyphenyl)-1H-pyrazol-5-yl)-3-(3-(6,7-dimethoxyquinazolin-4-yloxy)phenyl)urea] the S35 was “C (0.20 < C ≦ 0.40)”.
For `COc1ccc(-n2nc(C(C)(C)C)cc2NC(=O)Nc2cccc(Sc3ncnc4cc(OC)c(OC)cc34)c2)cc1` [Ex 362, 1-(3-tert-butyl-1-(4-methoxyphenyl)-1H-pyrazol-5-yl)-3-(3-(6,7-dimethoxyquinazolin-4-ylthio)phenyl)urea], the S35 was “D (D > 0.40)”.
In the case of `COc1cc2ncnc(Oc3cccc(NC(=O)Nc4cc(C(C)(C)C)nn4-c4cccc(Cl)c4)c3)c2cc1OC` [Ex 363, 1-(3-tert-butyl-1-(3-chlorophenyl)-1H-pyrazol-5-yl)-3-(3-(6,7-dimethoxyquinazolin-4-yloxy)phenyl)urea], the S35 was “D (D > 0.40)”.
`COc1cc2ncnc(Sc3cccc(NC(=O)Nc4cc(C(C)(C)C)nn4-c4cccc(Cl)c4)c3)c2cc1OC` [Ex 364, 1-(3-tert-butyl-1-(3-chlorophenyl)-1H-pyrazol-5-yl)-3-(3-(6,7-dimethoxyquinazolin-4-ylthio)phenyl)urea] was tested, and the S35 was “D (D > 0.40)”.
`COc1cc2ncnc(Oc3cccc(NC(=O)Nc4cc(C(C)(C)C)nn4-c4ccc(Cl)cc4)c3)c2cc1OC` [Ex 365, 1-(3-tert-butyl-1-(4-chlorophenyl)-1H-pyrazol-5-yl)-3-(3-(6,7-dimethoxyquinazolin-4-yloxy)phenyl)urea] was tested, and the S35 was “D (D > 0.40)”.
`COc1cc2ncnc(Sc3cccc(NC(=O)Nc4cc(C(C)(C)C)nn4-c4ccc(Cl)cc4)c3)c2cc1OC` [Ex 366, 1-(3-tert-butyl-1-(4-chlorophenyl)-1H-pyrazol-5-yl)-3-(3-(6,7-dimethoxyquinazolin-4-ylthio)phenyl)urea] was tested, and the S35 was “D (D > 0.40)”.
For `COc1cc2ncnc(Oc3ccc(F)c(NC(=O)Nc4cc(C(C)(C)C)on4)c3)c2cc1OC` [Ex 367, 1-(5-tert-butylisoxazol-3-yl)-3-(5-(6,7-dimethoxyquinazolin-4-yloxy)-2-fluorophenyl)urea], the S35 was “D (D > 0.40)”.
